In ChEMBL document CHEMBL5634077, “Recent advances in 1,2,3- and 1,2,4-triazole hybrids as antimicrobials and their SAR: A critical review” (2023):
Converted amounts (≈) assume the structure as drawn. Each block holds one compound with its values, some of them ahead of it.

Columns and labels:
Assay type in all cases: functional
[1] = system: Bacillus subtilis; test: Antibacterial activity against Bacillus subtilis assessed as inhibition of bacterial growth by microdilution method
[2] = system: Staphylococcus aureus; test: Antibacterial activity against Staphylococcus aureus assessed as inhibition of bacterial growth by microdilution method
[3] = system: Staphylococcus epidermidis; test: Antibacterial activity against Staphylococcus epidermidis assessed as inhibition of bacterial growth by microdilution method
[4] = system: Staphylococcus aureus; test: Antibacterial activity against methicillin-resistant Staphylococcus aureus assessed as reduction in microbial growth incubated for 18 to 24 hrs by serial dilution method; conditions: time 18-24 hrs
[5] = system: Staphylococcus aureus; test: Antibacterial activity against methicillin-sensitive Staphylococcus aureus assessed as reduction in microbial growth incubated for 18 to 24 hrs by serial dilution method; conditions: time 18-24 hrs
[6] = system: Staphylococcus aureus; test: Antibacterial activity against Staphylococcus aureus assessed as reduction in microbial growth incubated for 18 to 24 hrs by serial dilution method; conditions: time 18-24 hrs
[7] = system: Staphylococcus epidermidis; test: Antibacterial activity against Staphylococcus epidermidis assessed as reduction in microbial growth
[8] = system: Bacillus subtilis; test: Antibacterial activity against Bacillus subtilis MTCC 441 assessed as reduction in microbial growth
[9] = system: Candida albicans; test: Antifungal activity against Candida albicans MTCC 227 assessed as inhibition of fungal growth
[10] = system: Aspergillus niger; test: Antifungal activity against Aspergillus niger MTCC 8189 assessed as inhibition of fungal growth
[11] = system: Escherichia coli; test: Antibacterial activity against Escherichia coli MTCC 16521 assessed as reduction in microbial growth

MIC [1]: 3.12 µg/mL (≈ 8.38 µM)
MIC [2]: 12.5 µg/mL (≈ 33.6 µM)
MIC [3]: 6.25 µg/mL (≈ 16.8 µM)
SMILES: Fc1ccccc1OCc1cn(-c2ccc(N3CCOCC3)c(F)c2)nn1

MIC [7]: 6 µM
MIC [8]: 6 µM
MIC [9]: 6 µM (≈ 3.46 µg/mL)
MIC [10]: 6 µM (≈ 3.46 µg/mL)
MIC [11]: 6 µM
SMILES: COc1ccc(NC(=O)NCc2cn(CCCCCCn3cc(CNC(=O)Nc4ccc(OC)cc4)nn3)nn2)cc1

MIC [1]: 1.56 µg/mL (≈ 4.19 µM)
MIC [2]: 3.12 µg/mL (≈ 8.38 µM)
MIC [3]: 3.12 µg/mL (≈ 8.38 µM)
SMILES: Fc1ccc(OCc2cn(-c3ccc(N4CCOCC4)c(F)c3)nn2)cc1

MIC [7]: 6 µM
MIC [8]: 6 µM
MIC [9]: 6 µM (≈ 3.06 µg/mL)
MIC [10]: 6 µM (≈ 3.06 µg/mL)
MIC [11]: 6 µM
SMILES: O=C(NCc1cn(CCCn2cc(CNC(=O)Nc3ccc(F)cc3)nn2)nn1)Nc1ccc(F)cc1

MIC [7]: 6 µM
MIC [8]: 6 µM
MIC [9]: 6 µM (≈ 3.44 µg/mL)
MIC [10]: 6 µM (≈ 3.44 µg/mL)
MIC [11]: 6 µM
SMILES: O=C(NCc1cn(Cc2cccc(Cn3cc(CNC(=O)Nc4ccc(F)cc4)nn3)c2)nn1)Nc1ccc(F)cc1

MIC [1]: 25 µg/mL (≈ 61.7 µM)
MIC [2]: 50 µg/mL (≈ 123 µM)
MIC [3]: 25 µg/mL (≈ 61.7 µM)
SMILES: Fc1cc(-n2cc(COc3cccc4cccnc34)nn2)ccc1N1CCOCC1

MIC [1]: 6.25 µg/mL (≈ 13.6 µM)
MIC [2]: 12.5 µg/mL (≈ 27.2 µM)
MIC [3]: 25 µg/mL (≈ 54.4 µM)
SMILES: Fc1cc(-n2cc(CN3c4ccccc4Sc4ccccc43)nn2)ccc1N1CCOCC1

MIC [7]: 6 µM
MIC [8]: 6 µM
MIC [9]: 6 µM (≈ 3.43 µg/mL)
MIC [10]: 6 µM (≈ 3.43 µg/mL)
MIC [11]: 6 µM
SMILES: O=C(NCc1cn(CCCCCn2cc(CNC(=O)Nc3ccc(Cl)cc3)nn2)nn1)Nc1ccc(Cl)cc1

MIC [7]: 6 µM
MIC [8]: 6 µM
MIC [9]: 6 µM (≈ 3.38 µg/mL)
MIC [10]: 6 µM (≈ 3.38 µg/mL)
MIC [11]: 6 µM
SMILES: COc1ccc(NC(=O)NCc2cn(CCCCCn3cc(CNC(=O)Nc4ccc(OC)cc4)nn3)nn2)cc1

MIC [7]: 6 µM
MIC [8]: 6 µM
MIC [9]: 6 µM (≈ 3.15 µg/mL)
MIC [10]: 6 µM (≈ 3.15 µg/mL)
MIC [11]: 6 µM
SMILES: O=C(NCc1cn(CCCCn2cc(CNC(=O)Nc3ccc(F)cc3)nn2)nn1)Nc1ccc(F)cc1

MIC [7]: 6 µM
MIC [8]: 6 µM
MIC [9]: 6 µM (≈ 3.58 µg/mL)
MIC [10]: 6 µM (≈ 3.58 µg/mL)
MIC [11]: 6 µM
SMILES: COc1ccc(NC(=O)NCc2cn(Cc3cccc(Cn4cc(CNC(=O)Nc5ccc(OC)cc5)nn4)c3)nn2)cc1

MIC [1]: 25 µg/mL (≈ 59.3 µM)
MIC [2]: 25 µg/mL (≈ 59.3 µM)
MIC [3]: 3.12 µg/mL (≈ 7.4 µM)
SMILES: O=C(OCc1cn(-c2ccc(N3CCOCC3)c(F)c2)nn1)c1cc2ccccc2[nH]1

The remaining lines, values behind:

SMILES: O=C1CSc2ccccc2N1Cc1cn(-c2ccc(N3CCOCC3)c(F)c2)nn1
MIC [1]: 6.25 µg/mL (≈ 14.7 µM)
MIC [2]: 1.56 µg/mL (≈ 3.67 µM)
MIC [3]: 25 µg/mL (≈ 58.8 µM)

SMILES: COc1c(N2CCN(C(=O)Cn3cc(CN4C(=O)C(=O)c5cccc(F)c54)nn3)C(C)C2)c(F)cc2c(=O)c(C(=O)O)cn(C3CC3)c12 (stereo unspecified)
MIC [4]: 0.03 µg/mL
MIC [5]: 0.03 µg/mL
MIC [6]: 0.03 µg/mL

SMILES: CO/N=C1/C(=O)N(Cc2cn(CC(=O)N3CCN(c4c(F)cc5c(=O)c(C(=O)O)cn(C6CC6)c5c4OC)CC3C)nn2)c2ccc(F)cc21 (stereo unspecified)
MIC [4]: 0.03 µg/mL
MIC [5]: 0.03 µg/mL
MIC [6]: 0.03 µg/mL

SMILES: COc1c(N2CCN(C(=O)Cn3cc(CN4C(=O)/C(=N/O)c5cc(F)ccc54)nn3)C(C)C2)c(F)cc2c(=O)c(C(=O)O)cn(C3CC3)c12 (stereo unspecified)
MIC [4]: 0.03 µg/mL
MIC [5]: 0.03 µg/mL
MIC [6]: 0.03 µg/mL

SMILES: CC1(C)S[C@@H]2[C@H](NC(=O)Cc3ccccc3)C(=O)N2[C@H]1C(=O)O [PENICILLIN G]
MIC [1]: 1.56 µg/mL (≈ 4.67 µM)
MIC [2]: 1.56 µg/mL (≈ 4.67 µM)
MIC [3]: 3.12 µg/mL (≈ 9.33 µM)

SMILES: CN[C@@H]1[C@H](O[C@H]2[C@H](O[C@H]3[C@H](O)[C@@H](O)[C@H](N=C(N)N)[C@@H](O)[C@@H]3N=C(N)N)O[C@@H](C)[C@]2(O)C=O)O[C@@H](CO)[C@H](O)[C@H]1O [STREPTOMYCIN]
MIC [1]: 6.25 µg/mL (≈ 10.7 µM)
MIC [2]: 6.25 µg/mL (≈ 10.7 µM)
MIC [3]: 3.12 µg/mL (≈ 5.36 µM)

SMILES: O=C1CS(=O)(=O)c2ccccc2N1Cc1cn(-c2ccc(N3CCOCC3)c(F)c2)nn1
MIC [1]: 3.12 µg/mL (≈ 6.82 µM)
MIC [2]: 12.5 µg/mL (≈ 27.3 µM)
MIC [3]: 50 µg/mL (≈ 109 µM)

SMILES: COc1c(N2CCN(C(=O)Cn3cc(CN4C(=O)C(=O)c5cc(C)ccc54)nn3)C(C)C2)c(F)cc2c(=O)c(C(=O)O)cn(C3CC3)c12 (stereo unspecified)
MIC [4]: 0.03 µg/mL
MIC [5]: 0.03 µg/mL
MIC [6]: 0.03 µg/mL

SMILES: O=C1COc2cc(Br)ccc2N1Cc1cn(-c2ccc(N3CCOCC3)c(F)c2)nn1
MIC [1]: 25 µg/mL (≈ 51.2 µM)
MIC [2]: 25 µg/mL (≈ 51.2 µM)
MIC [3]: 25 µg/mL (≈ 51.2 µM)

SMILES: COc1c(N2CCN(C(=O)Cn3cc(CN4C(=O)C(=O)c5cc(F)ccc54)nn3)C(C)C2)c(F)cc2c(=O)c(C(=O)O)cn(C3CC3)c12 (stereo unspecified)
MIC [4]: 0.03 µg/mL
MIC [5]: 0.03 µg/mL
MIC [6]: 0.03 µg/mL

SMILES: COc1c(N2CCN(C(=O)Cn3cc(CN4C(=O)/C(=N/O)c5cc(C)ccc54)nn3)C(C)C2)c(F)cc2c(=O)c(C(=O)O)cn(C3CC3)c12 (stereo unspecified)
MIC [4]: 0.03 µg/mL
MIC [5]: 0.03 µg/mL
MIC [6]: 0.03 µg/mL

SMILES: Fc1cc(-n2cc(COc3cc(Cl)cc(Cl)c3)nn2)ccc1N1CCOCC1
MIC [1]: 12.5 µg/mL (≈ 29.5 µM)
MIC [2]: 6.25 µg/mL (≈ 14.8 µM)
MIC [3]: 12.5 µg/mL (≈ 29.5 µM)
